Measured values as given in patent US6417176B2, “Arylsulfonanilide phosphates” (Tularik, Inc., priority 1998, dated 2002).

Tested on: HeLa cells
Details: 72 hours of treatment, 50% growth inhibition

## 5-(Pentafluorophenylsulfonamido)-2-methoxyphenyl phosphate [Example 1]
  GI50: 15 nM
